This passage reports GI50 results from patent US20070167499A1, “Biaryl linked hydroxamates: preparation and pharmaceutical applications” (A*BIO Pte Ltd., priority 2003, published 2007).

The subject of one experiment is NCI H552. Kind of experiment: Cell-based proliferation assay for determination of GI50 values, lung cancer cell line. The note with it: Homo sapiens; 96 h treatment, cyquant cell proliferation assay; read-out: Cellular activities GI50, NCI H552. The procedure:
(§1) Cell-based Proliferation assay for determination of GI50 values
(§2) Three different cancer cell lines were obtained from ATCC: Human colon cancer cell line (Colo205), human breast cancer cell lines (MDA-MB435), and human lung cancer cell line (NCl-H522). Colo205 cells and NCl-H522 were cultivated in RPMI 1640 containing 2 mM
(§3) L-Glutamine, 5% FBS, 1.0 mM Na Pyruvate. MDA-MB435 cells were cultivated in DMEM containing 2 mM L-Glutamine, 5% FBS. Colo205 cells were seeded in 96-wells plate at 2000 and 5000 cells per well respectively. MDA-MB435 and NCl-H522 cells were seeded in 96-wells plate at 6000 cells per well. The plates were incubated at 37° C., 5% CO2, for 24 h. Cells were treated with compounds at various concentrations for 96 h. Cell growth was then monitored using cyquant cell proliferation assay (Invitrogen Pte Ltd). Dose response curves were plotted to determine GI50 values for the compounds using XL-fit (ID Business Solution, Emeryville, Calif.).

In the next experiment the test system is Colo205. Description: Cell-based proliferation assay for determination of GI50 values, colon cancer cell line. To be noted: Homo sapiens, COLO 205; 96 h treatment, cyquant cell proliferation assay; read-out: Cellular activities GI50, Colo205. As to the method: as §1, §2, §3

`CC(C)(C)OC(=O)N1CCN(c2ccc(C(=O)Nc3nc(-c4ccc(CC(=O)NO)s4)cs3)cc2)CC1` [Example 9]: the GI50 (in general, the concentration giving 50% growth inhibition) in the experiment with NCI H552 turned out to be 3.01 µM; with Colo205, 5.47 µM.
